Several values for one entry are separate records, joined by “and”; a condition that tells them apart may be missing. Equal values may be shown once. Read-outs that look alike come from different tables or passages of the source.

The subject of data set [1] is Huh7-J20 cells. To be noted: cited from earlier work.
Data set [2] has as its system HCVcc gt 2a strain JFH-1. More on the design: method as in Iro et al.[23]. To be noted: Huh7-J20 reporter cells; ref Iro et al.[23]; cited from earlier work.
For data set [3], the system named is HCVcc gt 2a strain JFH-1. The experiment in a line: HCVcc JFH-1 infection of Huh7-J20 reporter cells, second protocol (full life cycle), SEAP dose-response. It is filed as cell-based, Hepatitis C Virus. The note with it: JFH-1 HCVcc gt2a, 3 d post-infection.
The nature of data set [4]: Cell viability assay (WST-1). The note with it: human, Huh7-J20 cells.
Experimental: (§3) All the drugs were tested starting from the concentration of 30 μM with 3-fold dilutions.
(§4) Huh7, Huh7-J20 and Huh7-J17 cells were tested for viability in the same conditions described for antiviral assays. Cells grown in a 96-well tissue culture plate in the presence of the drugs or DMSO control were incubated with the WST-1 reagent (Roche) for 3 h as per the manufacturer’s protocol. Cell viability was obtained reading absorbance at 450 nm with PHERAstar (BMG Labtech).
In data set [5] the test system is Huh7-J20 cells.
Experimental: as §3, §4
The test system of data set [6] is gt1b (isolate Con1) subgenomic I389/NS3-3′/LucUbiMeo/ET replicon. Put plainly: gt1b sub-genomic replicon dose-response. In kind it is cell-based, Hepatitis C Virus. The note with it: Huh7 cells stably harbouring the Con1 replicon, 72 h, luciferase.
Another data set relates to HCVcc JFH-1DSGCSL. The experiment in a line: Viral RNA quantification after infection with adaptive mutant JFH-1DSGCSL (Protocol 3), RT-qPCR. It is filed as cell-based, Hepatitis C Virus. The note with it: 10 μM, Huh7 cells, Protocol 3, 72 h post-infection. The protocol:
To further confirm antiviral activity, we tested Z385, Z387, Z400, and Z401 on a cell culture adaptive derivative HCV JFH-1DSGCSL strain that consistently replicates to high titres. Huh7 cells were infected with HCVcc JFH-1DSGCSL in the presence of drugs as per Protocol 3 described above and RNA was collected 72 h post-infection. Total RNA and the viral RNA were quantified as above.
Figure 5 Antiviral activity on cell-culture adaptive mutant JFH-1DSGCSL. Huh7 cells were infected following the third protocol with adaptive mutant virus and incubated for 3 d with drugs at the concentration of 10 μM. Viral RNA levels and relative SEAP activity were measured as previously described.
Huh7 Lunet-CD81 cells and their control Huh7L- H/EF cells were electroporated with 5 μg of JFH-1 RNA, seeded with drugs in a 12-well tissue culture dish and incubated for 3 d. Cellular RNA was isolated using TRI Reagent (Sigma) following manufacturer’s protocol. RNA quantification from the released viral particles was performed as below following digestion of infected cell medium with RNAse A for 2 h and RNA extraction using the RNeasy kit (Qiagen). HCV RNA quantification was carried out by RT-qPCR using TaqMan probes as reported. Briefly, 250 ng of total RNA were reverse transcribed to obtain cDNA in a 20 μl reaction using TaqMan Reverse Transcription Reagents (Life Technologies) with random hexamers, following manufacturer’s protocol. Reverse transcription was performed at 48 °C for 30 min, followed by 5 min at 85 °C. The qPCR was performed with 1.5 μl of cDNA in a 15 μl reaction mixture (TaqMan Fast Universal PCR Master Mix; Life Technologies) with 250 nM of Fw_primer (5′- […]-3′), 250 nm of Rev_primer (5′-[…]-3′) and 250 nM of TaqMan MGB (minor-groove binding) probe labelled with 6-carboxyfluorescin (5′-FAM-[…]-MGB-3′). Samples were placed in an ABI Fast 7500 instrument (Life Technologies) and were amplified using the following parameters: 95 °C for 5 minutes with cycling parameters set to 95 °C for 3 s and 60 °C for 30 s for 40 cycles. Absolute quantification was carried out using linear regression on a standard curve based on pJFH-1 serial dilution.

In data set [7] the test system is gt3a S52-WT-∆N sub-genomic replicon. Put plainly: gt3a sub-genomic replicon dose-response. In kind it is cell-based, Hepatitis C Virus. To be noted: Huh7.5-SEC14L2 cells electroporated with S52-WT-∆N RNA, 72 h, luciferase.
Data set [8] relates to HCVcc gt 2a strain JFH-1. The experiment in a line: HCVcc post-entry model (Protocol 3: drug added after 3 h infection), SEAP. It is filed as cell-based, Hepatitis C Virus. To be noted: 10 μM, 3 d. The protocol: (§1) Reagents and conditions: a) K2CO3, DMF, room temperature, 24 h; b) MeI, NaH, DMF, 0 °C, 4 h. (B,C) Antiviral activity on HCVcc and cell viability. […] Then, inoculum was removed and cells re-fed with fresh medium. After 72 h the infected cell medium was collected and inhibitory effect was determined by measuring SEAP activity (top). Cell viability analysis was performed following same conditions with no viral infection (bottom). The values of DMSO-treated cells are expressed as 100% and those of the drug-treated cells as relative to this DMSO control. Error bars indicate standard error of the means for 3 experiments. (C) Huh7-J20 cells were infected for 3 h with JFH-1 and then treated for 3 d with drugs (10 μM) (post-entry, top) or infected for 3 h in the presence of the drugs, after a pretreatment of 1 h, and then incubated for 3 d maintaining drugs in the medium (full life cycle, centre). SEAP assay was performed on infected cell medium to determine antiviral activity. Data are presented as in (B) above. Cell viability was performed following full life cycle protocol (bottom).
(§2) To assess the effect of compounds on HCV infection, we used three protocols: Protocol 1 where Huh7-J20[23] cells were pre-treated for 1 h and exposed to the cell culture infectious HCV (HCVcc) gt 2a strain JFH-1 in the presence of 10 μM drug or equivalent DMSO (as a vehicle control) for 3 h. […]

In data set [9] the test system is SGR-JFH-luc sub-genomic replicon. It is filed as cell-based, Hepatitis C Virus.
In data set [10] the test system is HCVcc gt 2a strain JFH-1. The experiment in a line: HCVcc entry model (Protocol 1: drug only during pre-treatment and 3 h infection), SEAP. In kind it is cell-based, Hepatitis C Virus. The note with it: 10 μM, 1 h pre-treatment + 3 h infection, then 72 h without drug. The protocol:
as §1, §2

Consider `C[C@@]1(O)[C@H](O)[C@@H](CO)O[C@H]1n1cnc2c(N)ncnc21` [2′-C-methyladenosine], for which the CC50 with Huh7-J20 cells [1] was greater than 30 µM. Besides, the IC50 with HCVcc gt 2a strain JFH-1 [2] was 2 µM.

Molecule `O=C(Cn1c(=O)ccn(Cc2ccccc2)c1=O)Nc1ccc(Oc2ccccc2)cc1` [Z176] showed an IC50 with HCVcc gt 2a strain JFH-1 [3] (Hepatitis C virus, 72 h) of 1.34 µM. Besides, the half-maximal cytotoxic concentration (CC50) at 3 d in [4] was found to be 17.6 µM.

In the case of `O=C(Cn1c(=O)ccn(CCCCCOc2ccc(Br)cc2)c1=O)Nc1ccc(Oc2ccccc2)cc1` [Z263], in the data set on HCVcc gt 2a strain JFH-1 [3] (Hepatitis C virus, 72 h), the 50% inhibitory concentration (IC50) was found to be 3.1 µM. The same molecule displayed a half-maximal cytotoxic concentration (CC50) at 3 d in data set [4] of 56.3 µM.

`Cc1cn(CCCCCOc2ccc(Br)cc2)c(=O)n(CC(=O)Nc2ccc(Oc3ccccc3)cc2)c1=O` [Z376] showed a cytotoxic concentration (CC50) with Huh7-J20 cells [5] of 69.2 µM.

In the data set with HCVcc gt 2a strain JFH-1 [3], `O=C(Cn1c(=O)ccn(CCCCCOc2ccc(Br)cc2)c1=O)Nc1ccc(OCc2ccccc2)cc1` [Z377] returned an IC50 of 2.98 µM. The molecule also had a half-maximal cytotoxic concentration (CC50) in the data set with Huh7-J20 cells [5] of 18.4 µM.

As for `O=C(Cn1c(=O)ccn(CCCCCOc2ccc(Br)cc2)c1=O)Nc1ccc(Oc2ccc(Cl)cc2)cc1` [Z385], the IC50 amounted to 0.585 µM in the data set with HCVcc gt 2a strain JFH-1 [3], 6.9 µM in data set [6] and 0.66 µM in data set [7]. For the same molecule, in the data set with HCVcc JFH-1DSGCSL, the “reduction of total viral RNA levels” value was found to be 90%. Also, in the data set on Huh7-J20 cells [5], the CC50 was determined as 59.2 µM.

Regarding `O=C(Cn1c(=O)ccn(CCCCCOc2ccc(Br)cc2)c1=O)Nc1ccc(Cc2ccccc2)cc1` [Z387], the concentration for half-maximal inhibition (IC50) is 0.712 µM in the data set on HCVcc gt 2a strain JFH-1 [3], 23.3 µM in data set [6] and 0.94 µM in data set [7]. For the same molecule, the “reduction of total viral RNA levels” value in the data set on HCVcc JFH-1DSGCSL came to 90%. Besides, in the data set on Huh7-J20 cells [5], the 50% cytotoxic concentration (CC50) was 132 µM.

As to `O=C(Cn1c(=O)ccn(CCCCOc2ccc(Br)cc2)c1=O)Nc1ccc(Oc2ccccc2)cc1` [Z397], in the data set with HCVcc gt 2a strain JFH-1 [3], 2.95 µM corresponded to half-maximal inhibition (IC50). This molecule also displayed a cytotoxic concentration (CC50) in the data set on Huh7-J20 cells [5] of 61.1 µM.

For the molecule `O=C(Cn1c(=O)ccn(CCCCCCOc2ccc(Br)cc2)c1=O)Nc1ccc(Oc2ccccc2)cc1` [Z400], the results for the IC50 (in the data set with HCVcc gt 2a strain JFH-1 [3]; in data set [6]; in data set [7]) were 0.243 µM, 12.6 µM and 1.1 µM, respectively. Moreover, in the data set with HCVcc JFH-1DSGCSL, the “reduction of total viral RNA levels” value is 90%. Besides, in the data set with Huh7-J20 cells [5], the CC50 was 66.5 µM.

`O=C(Cn1c(=O)ccn(CCCCCCCCOc2ccc(Br)cc2)c1=O)Nc1ccc(Oc2ccccc2)cc1` [Z401]: the antiviral activity post-entry entry in the data set with HCVcc gt 2a strain JFH-1 [8] was “strongly effective post-entry”. Also, the IC50 in the data set on HCVcc gt 2a strain JFH-1 [3] is 0.092 µM and 0.0924 µM; in data set [6] it was 2.2 µM; in [7] it was 0.69 µM. Further, the “reduction of total viral RNA levels” value with HCVcc JFH-1DSGCSL was determined as 90%. Also, the “antiviral activity, short treatment, 48 h post transfection” value in data set [9] is given as 50%. The “inhibition of virus infection (HCVcc entry) relative to DMSO” value in the data set with HCVcc gt 2a strain JFH-1 [10] came out at 80%. In the data set on Huh7-J20 cells [5], this molecule showed a half-maximal cytotoxic concentration (CC50) of 22.6 µM.

In the data set with HCVcc gt 2a strain JFH-1 [3], `Cc1ccc(Oc2ccc(NC(=O)Cn3c(=O)ccn(CCCCCOc4ccc(Br)cc4)c3=O)cc2)cc1` [Z413] yielded an IC50 of 0.315 µM. The molecule further returned a CC50 with Huh7-J20 cells [5] of 27.4 µM.

`O=C(Cn1c(=O)ccn(CCCCCOc2ccc(Br)cc2)c1=O)Nc1ccc(Oc2ccc(F)cc2)cc1` [Z414] returned a concentration for half-maximal inhibition (IC50) with HCVcc gt 2a strain JFH-1 [3] of 0.627 µM. In the data set with Huh7-J20 cells [5], this molecule yielded a CC50 of 30.5 µM.

In the data set with HCVcc gt 2a strain JFH-1 [3], `O=C(Cn1c(=O)ccn(CCCCCOc2cccc(Br)c2)c1=O)Nc1ccc(Oc2ccccc2)cc1` [Z421] returned an IC50 of 1.16 µM. The molecule also showed a 50% cytotoxic concentration (CC50) with Huh7-J20 cells [5] of 44.6 µM.

The molecule `O=C(Cn1c(=O)ccn(CCCCCOc2ccc(Br)cc2)c1=O)Nc1ccc(C(=O)c2ccccc2)cc1` [Z430] gave an IC50 with HCVcc gt 2a strain JFH-1 [3] of 0.941 µM. Half-maximal cytotoxicity with Huh7-J20 cells [5] (CC50) was put at 11.5 µM.

`CN(C(=O)Cn1c(=O)ccn(CCCCCOc2ccc(Br)cc2)c1=O)c1ccc(Oc2ccccc2)cc1` [Z431]: half-maximal inhibition in the data set with HCVcc gt 2a strain JFH-1 [3] (Hepatitis C virus, 72 h) (IC50) required 0.5 µM. Also, the midpoint of cytotoxicity in [4], the CC50 at 3 d, lay at 2.67 µM.

In the data set with HCVcc gt 2a strain JFH-1 [3], `O=C(Cn1c(=O)ccn(CCCCOCc2ccc(Br)cc2)c1=O)Nc1ccc(Oc2ccccc2)cc1` [Z432] registered an IC50 of 1.29 µM. For the same molecule, in the data set on Huh7-J20 cells [5], the CC50 is 19.2 µM and the “increase in cytotoxicity compared to Z263” value is listed as roughly 3 fold.

`N#Cc1ccc(OCCCCCn2ccc(=O)n(CC(=O)Nc3ccc(Oc4ccccc4)cc3)c2=O)cc1` [Z434]: in the data set with HCVcc gt 2a strain JFH-1 [3], the IC50 was determined as 1.85 µM. In the data set with Huh7-J20 cells [5], this molecule registered a CC50 of 10.5 µM.

As to `O=C(Cn1c(=O)ccn(CCCCCOc2ccccc2)c1=O)Nc1ccc(Oc2ccccc2)cc1` [Z436], 3.62 µM corresponded to half-maximal inhibition with HCVcc gt 2a strain JFH-1 [3] (IC50). For the same molecule, in the data set with Huh7-J20 cells [5], it took 13 µM to reach half-maximal cytotoxicity (CC50).

Turning to `O=C(Cn1c(=O)ccn(CCCCCCc2ccccc2)c1=O)Nc1ccc(Oc2ccccc2)cc1` [Z437], the midpoint of inhibition with HCVcc gt 2a strain JFH-1 [3], the IC50, lay at 2.93 µM. Besides, it took 14.7 µM to reach half-maximal cytotoxicity in the data set on Huh7-J20 cells [5] (CC50).

In the data set on HCVcc gt 2a strain JFH-1 [3], `O=C(Cn1c(=O)ccn(CCCCCOc2ccc(-c3ccccc3)cc2)c1=O)Nc1ccc(Oc2ccccc2)cc1` [Z438] registered an IC50 of 1.74 µM. The CC50 with Huh7-J20 cells [5] is 9.6 µM.

`O=C(Cn1c(=O)c(I)cn(CCCCCOc2ccc(Br)cc2)c1=O)Nc1ccc(Oc2ccccc2)cc1` [Z439]: in the data set on HCVcc gt 2a strain JFH-1 [3], inhibition was half-maximal at 3.72 µM (IC50). In the data set on Huh7-J20 cells [5], this molecule displayed a CC50 of 29.7 µM.

These data come from PMC4942610, “Exploration of acetanilide derivatives of 1-(ω-phenoxyalkyl)uracils as novel inhibitors of Hepatitis C Virus replication” (Scientific Reports, 2016).
